One block for each molecule: values may come before it.
Legend:
[1] = AMES experiments; assay type: cell-based
[2] = Key water activity research, crystal form A and hydrate crystal form E; assay type: physicochemical; conditions: room temperature
[3] = Room temperature storage of crystal form F (XRPD); assay type: physicochemical; conditions: room temperature (18-20° C./45~75% RH), about 3 days
[4] = Suspension competition of anhydrous crystal forms A/G; assay type: physicochemical
Procedure: In order to study the stability relationship between other anhydrous crystal forms (crystal forms A/G), suspension competition experiments were conducted at room temperature and 60° C. using ACN and EtOAc as solvents.

Structure (SMILES): CC(=O)Nc1ccc(CCN2C(=O)COC2c2cn(-c3ccc(Br)cc3)nc2-c2ccc(F)cc2)cc1[N+](=O)[O-] (centres unmarked) [3-(4-acetylamino-3-nitrophenylethyl)-2-(3-(4-fluorophenyl)-1-(4-bromophenyl)-1H-pyrazole-4-yl) oxazolidin-4-one]
AMES experiments [1]: positive

Structure (SMILES): Nc1ccc(CCN2C(=O)COC2c2cn(-c3ccc(Br)cc3)nc2-c2ccc(F)cc2)cc1N (centres unmarked) [2-(1-(4-bromophenyl)-3-(4-fluorophenyl)-1H-pyrazole-4-yl)-3-(3,4-diaminophenethyl) oxazolidin-4-one]
AMES experiments [1]: positive

Structure (SMILES): Nc1ccc(CCN2C(=O)COC2c2cn(-c3ccc(Br)cc3)nc2-c2ccc(F)cc2)cc1[N+](=O)[O-] (centres unmarked) [3-(4-amino-3-nitrophenylethyl)-2-(1-(4-bromophenyl)-3-(4-fluorophenyl)-1H-pyrazole-4-yl) oxazolidin-4-one]
AMES experiments [1]: positive

The crystal form obtained (key water activity) ([2]; Water activity(Aw) 0, Acetone/H2O 1000:0 v/v): Crystal form A | The crystal form obtained (key water activity) ([2]; Water activity(Aw) 0.2, Acetone/H2O 984:16 v/v): Crystal form A | The crystal form obtained (key water activity) ([2]; Water activity(Aw) 0.4, Acetone/H2O 948:52 v/v): Crystal form A | The crystal form obtained (key water activity) ([2]; Water activity(Aw) 0.6, Acetone/H2O 857:143 v/v): Crystal form A | The crystal form obtained (key water activity) ([2]; Water activity(Aw) 0.8, Acetone/H2O 604:396 v/v): Crystal form A | The crystal form obtained (key water activity) ([2]; Water activity(Aw) 1.0, Acetone/H2O 0:1000 v/v): Crystal form E
Structure (SMILES): O=C1CO[C@H](c2cn(-c3ccc(Br)cc3)nc2-c2ccc(F)cc2)N1CCc1ccc2[nH]c(=O)[nH]c2c1

crystal form after being placed at room temperature [3]: transformed into crystal form E
Structure (SMILES): O=C1CO[C@H](c2cn(-c3ccc(Br)cc3)nc2-c2ccc(F)cc2)N1CCc1ccc2[nH]c(=O)[nH]c2c1 [Crystal form F]

The crystal form obtained (suspension competition) ([4]; ACN, 60° C., test D220-PS-14-A3): Crystal form A | The crystal form obtained (suspension competition) ([4]; ACN, Room temperature(~18° C.), test D220-PS-14-A1): Crystal form A | The crystal form obtained (suspension competition) ([4]; EtOAc, 60° C., test D220-PS-14-A4): Crystal form A | The crystal form obtained (suspension competition) ([4]; EtOAc, Room temperature(~18° C.), test D220-PS-14-A2): Crystal form A
Structure (SMILES): O=C1CO[C@H](c2cn(-c3ccc(Br)cc3)nc2-c2ccc(F)cc2)N1CCc1ccc2[nH]c(=O)[nH]c2c1 [Crystal form A/G]

From US12686674B2, “Crystal form of compound represented by formula I, and preparation therefor and application thereof” (Shanghai Zhimeng Biopharma, Inc., priority 2021, dated 2026)
